Reference: the supplement of paper PMC10307832

What was measured:
Experiment in all cases: relative viability (nuclei count vs DMSO), 5 days (fraction); higher = more cells survive
COR-L23 = system: COR-L23
Outline: (§1)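 Values are medians from duplicate plates. Each reflects relative viability, defined as the nuclei count of treated wells over that of vehicle wells. Lung cancer cell lines in 1536-well plates were pin-tool dosed one day after seeding with one drug alone or with a fixed anchor-drug dose plus five library-drug doses (not always all listed) in √10 steps, then fixed, stained and imaged at 4× after 5 days.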

ChaGo-K-1 = system: ChaGo-K-1
Outline: as §1

EPLC-272H = system: EPLC-272H
Outline: as §1

HCC-15 = system: HCC-15
Outline: as §1

HCC-366 = system: HCC-366
Outline: as §1

HCC-44 = system: HCC-44
Outline: as §1

HCC-827 = system: HCC-827
Outline: as §1

LCLC-103H = system: LCLC-103H
Outline: as §1

NCI-H1355 = system: NCI-H1355
Outline: as §1

NCI-H1734 = system: NCI-H1734
Outline: as §1

NCI-H1793 = system: NCI-H1793
Outline: as §1

NCI-H1944 = system: NCI-H1944
Outline: as §1

NCI-H2009 = system: NCI-H2009
Outline: as §1

NCI-H2023 = system: NCI-H2023
Outline: as §1

NCI-H2085 = system: NCI-H2085
Outline: as §1

NCI-H2228 = system: NCI-H2228
Outline: as §1

NCI-H2347 = system: NCI-H2347
Outline: as §1

NCI-H2405 = system: NCI-H2405
Outline: as §1

NCI-H3122 = system: NCI-H3122
Outline: as §1

PC-14 = system: PC-14
Outline: as §1

SW 1573 = system: SW 1573
Outline: as §1

Compound `CN1CCN(CCOc2cc(OC3CCOCC3)c3c(Nc4c(Cl)ccc5c4OCO5)ncnc3c2)CC1` [Saracatinib] + CC(=O)Nc1cccc(-n2c(=O)n(C3CC3)c(=O)c3c(Nc4ccc(I)cc4F)n(C)c(=O)c(C)c32)c1 [Trametinib] (partner 0.02 µM) has a relative viability (COR-L23; first compound 0.02 µM) of 0.58, a relative viability (COR-L23; first compound 0.2 µM) of 0.53 and a relative viability (COR-L23; first compound 0.6325 µM) of 0.574. The relative viability (COR-L23; first compound 2 µM) was 0.559, the relative viability (ChaGo-K-1; first compound 0.02 µM) was 0.935 and the relative viability (ChaGo-K-1; first compound 0.2 µM) was 0.566. For the same compound, the relative viability (ChaGo-K-1; first compound 0.6325 µM) was 0.906, the relative viability (ChaGo-K-1; first compound 2 µM) was 0.84 and the relative viability (EPLC-272H; first compound 0.02 µM) was 0.289. It also gave a relative viability (EPLC-272H; first compound 0.2 µM) of 0.368, a relative viability (EPLC-272H; first compound 0.6325 µM) of 0.283 and a relative viability (EPLC-272H; first compound 2 µM) of 0.287. For the same compound, the relative viability (HCC-15; first compound 0.02 µM) was 0.44, the relative viability (HCC-15; first compound 0.2 µM) was 0.371 and the relative viability (HCC-15; first compound 0.6325 µM) was 0.455. The relative viability (HCC-15; first compound 2 µM) was 0.388, the relative viability (HCC-366; first compound 0.02 µM) was 0.337 and the relative viability (HCC-366; first compound 0.2 µM) was 0.128. For the same compound, the relative viability (HCC-366; first compound 0.6325 µM) was 0.216, the relative viability (HCC-366; first compound 2 µM) was 0.202 and the relative viability (HCC-44; first compound 0.02 µM) was 1.05. It also gave a relative viability (HCC-44; first compound 0.2 µM) of 1.02, a relative viability (HCC-44; first compound 0.6325 µM) of 1.18 and a relative viability (HCC-44; first compound 2 µM) of 1.21. The relative viability (HCC-827; first compound 0.02 µM) was 0.542, the relative viability (HCC-827; first compound 0.2 µM) was 0.306 and the relative viability (HCC-827; first compound 0.6325 µM) was 0.225. For the same compound, the relative viability (HCC-827; first compound 2 µM) was 0.156, the relative viability (LCLC-103H; first compound 0.02 µM) was 0.716 and the relative viability (LCLC-103H; first compound 0.2 µM) was 0.58. For the same compound, the relative viability (LCLC-103H; first compound 0.6325 µM) was 0.751, the relative viability (LCLC-103H; first compound 2 µM) was 0.656 and the relative viability (NCI-H1355; first compound 0.02 µM) was 0.437. It also gave a relative viability (NCI-H1355; first compound 0.2 µM) of 0.456, a relative viability (NCI-H1355; first compound 0.6325 µM) of 0.439 and a relative viability (NCI-H1355; first compound 2 µM) of 0.441. For the same compound, the relative viability (NCI-H1734; first compound 0.02 µM) was 0.7, the relative viability (NCI-H1734; first compound 0.6325 µM) was 0.645 and the relative viability (NCI-H1734; first compound 2 µM) was 0.611. The relative viability (NCI-H1793; first compound 0.02 µM) was 0.439, the relative viability (NCI-H1793; first compound 0.2 µM) was 0.395 and the relative viability (NCI-H1793; first compound 0.6325 µM) was 0.513. The relative viability (NCI-H1793; first compound 2 µM) was 0.475, the relative viability (NCI-H1944; first compound 0.02 µM) was 0.421 and the relative viability (NCI-H1944; first compound 0.2 µM) was 0.391. The relative viability (NCI-H1944; first compound 0.6325 µM) was 0.417, the relative viability (NCI-H1944; first compound 2 µM) was 0.308 and the relative viability (NCI-H2009; first compound 0.02 µM) was 0.274. It also gave a relative viability (NCI-H2009; first compound 0.2 µM) of 0.207, a relative viability (NCI-H2009; first compound 0.6325 µM) of 0.209 and a relative viability (NCI-H2009; first compound 2 µM) of 0.175. It also gave a relative viability (NCI-H2023; first compound 0.02 µM) of 0.52, a relative viability (NCI-H2023; first compound 0.2 µM) of 0.269 and a relative viability (NCI-H2023; first compound 0.6325 µM) of 0.487. It also gave a relative viability (NCI-H2023; first compound 2 µM) of 0.348, a relative viability (NCI-H2085; first compound 0.02 µM) of 0.482 and a relative viability (NCI-H2085; first compound 0.2 µM) of 0.541. For the same compound, the relative viability (NCI-H2085; first compound 0.6325 µM) was 0.497, the relative viability (NCI-H2085; first compound 2 µM) was 0.404 and the relative viability (NCI-H2228; first compound 0.02 µM) was 0.616. The relative viability (NCI-H2228; first compound 0.2 µM) was 0.425, the relative viability (NCI-H2228; first compound 0.6325 µM) was 0.703 and the relative viability (NCI-H2228; first compound 2 µM) was 0.465. For the same compound, the relative viability (NCI-H2347; first compound 0.02 µM) was 0.265, the relative viability (NCI-H2347; first compound 0.2 µM) was 0.265 and the relative viability (NCI-H2347; first compound 0.6325 µM) was 0.379. It also gave a relative viability (NCI-H2347; first compound 2 µM) of 0.277, a relative viability (NCI-H2405; first compound 0.02 µM) of 0.646 and a relative viability (NCI-H2405; first compound 0.2 µM) of 0.616. It also gave a relative viability (NCI-H2405; first compound 0.6325 µM) of 0.444, a relative viability (NCI-H2405; first compound 2 µM) of 0.406 and a relative viability (NCI-H3122; first compound 0.02 µM) of 0.212. It also gave a relative viability (NCI-H3122; first compound 0.2 µM) of 0.163, a relative viability (NCI-H3122; first compound 0.6325 µM) of 0.154 and a relative viability (NCI-H3122; first compound 2 µM) of 0.155. The relative viability (PC-14; first compound 0.02 µM) was 0.605, the relative viability (PC-14; first compound 0.2 µM) was 0.275 and the relative viability (PC-14; first compound 0.6325 µM) was 0.0993. The relative viability (PC-14; first compound 2 µM) was 0.0574, the relative viability (SW 1573; first compound 0.02 µM) was 0.507 and the relative viability (SW 1573; first compound 0.2 µM) was 0.598. The relative viability (SW 1573; first compound 0.6325 µM) was 0.457 and the relative viability (SW 1573; first compound 2 µM) was 0.364.
